From the OPERA property sets (Mansouri et al. 2018)

| SMILES | logP |
| --- | --- |
| Cn1nc2ccc(NC(=O)c3ccccc3)cc2n1 | 2.44 |
| O=C(Nc1ccc2nn(C3CCCCC3)nc2c1)C(Cl)Cl | 3.87 |
| Cn1nc2ccc(NC(=O)c3ccc([N+](=O)[O-])cc3)cc2n1 | 2.53 |
| COc1cc(C(=O)Nc2ccc3nn(C)nc3c2)cc(OC)c1OC | 2.38 |
| Cn1nc2ccc(NC(=O)CCl)cc2n1 | 1.22 |

Other lines, results leading:

| logP | SMILES |
| --- | --- |
| 4.03 | COc1ccc(C(=O)Nc2ccc3nn(C4CCCC4)nc3c2)cc1 |
| 4.57 | O=C(Nc1ccc2nn(C3CCCCC3)nc2c1)c1ccc([N+](=O)[O-])cc1 |
| 3.13 | Cn1nc2ccc(NC(=O)c3ccc(Cl)cc3)cc2n1 |
| 4.45 | COc1cc(C(=O)Nc2ccc3nn(C4CCCCC4)nc3c2)cc(OC)c1OC |
| 5.85 | O=C(Nc1ccc2nn(C3CCCCC3)nc2c1)c1ccc(Cl)c(Cl)c1 |
| 4.45 | O=C(Nc1ccc2nn(C3CCCCC3)nc2c1)c1ccccc1 |
